Here are results for 30 compounds from US9303045B2, “5-HT3 receptor antagonists” (Takeda Pharmaceutical Company Limited, priority 2013, dated 2016).

pIC50: −log10 of the molar value. Where a name gives a salt, the structure may show the parent alone. A value given as a limit tells only on which side of the number the result lay.

The assay deals with 5HT3a receptor expressed in HEK-293T cells (Homo sapiens (Human), UniProt P46098). Nature of the assay: Inhibition of Ca flux activity of 5HT3 in vitro assay. The class given is cell-based. To be noted: calcium flux, 5HT 216 nM, approximate values. The method, boiled down:
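HEK-293T cells transiently transfected with human 5HT3a, loaded 1 hour at 37° C with calcium dye in HBSS/20 mM HEPES, preincubated with compound (10^−7 to 10^−10, half-log) 10 minutes at room temperature.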

Chain of 5HT3a receptor expressed in HEK-293T cells (P46098 24-478): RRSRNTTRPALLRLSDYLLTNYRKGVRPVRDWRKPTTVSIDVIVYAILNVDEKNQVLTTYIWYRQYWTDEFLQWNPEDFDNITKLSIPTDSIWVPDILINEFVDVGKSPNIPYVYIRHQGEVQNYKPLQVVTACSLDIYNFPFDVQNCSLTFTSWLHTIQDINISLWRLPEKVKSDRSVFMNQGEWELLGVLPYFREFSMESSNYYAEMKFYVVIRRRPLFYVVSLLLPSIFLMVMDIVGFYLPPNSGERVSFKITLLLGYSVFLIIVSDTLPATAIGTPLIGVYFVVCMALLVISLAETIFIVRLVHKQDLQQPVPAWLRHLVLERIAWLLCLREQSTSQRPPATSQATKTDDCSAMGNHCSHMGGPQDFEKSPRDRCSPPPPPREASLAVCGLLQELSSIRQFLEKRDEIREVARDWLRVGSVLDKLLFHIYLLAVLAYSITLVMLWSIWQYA

`O=C(O[C@H]1C[C@H]2COC[C@@H](C1)N2)c1cn(-c2cccnn2)c2ccccc12` [Example 136, (1R,5S,7s)-3-oxa-9-azabicyclo[3.3.1]nonan-7-yl 1-(pyridazin-3-yl)-1H-indole-3-carboxylate, 2,2,2-trifluoroacetic acid salt]: the pIC50 was 9.04.

For the compound `O=C(OC1CC2COCC(C1)N2)c1cn(-c2cnccn2)c2ccccc12` [Example 141, (1R,5S,7s)-3-oxa-9-azabicyclo[3.3.1]nonan-7-yl 1-(pyrazin-2-yl)-1H-indole-3-carboxylate, 2,2,2-trifluoroacetic acid salt], the pIC50 is 8.95.

As for `O=C(OC1CC2COCC(C1)N2)c1cn(-c2cnsc2)c2ccccc12` [Example 143, (1R,5S,7s)-3-oxa-9-azabicyclo[3.3.1]nonan-7-yl 1-(isothiazol-4-yl)-1H-indole-3-carboxylate, 2,2,2-trifluoroacetic acid salt], the pIC50 was 9.38. Then `CN1[C@@H]2COC[C@H]1C[C@@H](NC(=O)c1cn(-c3cnsc3)c3ccccc13)C2` [Example 144, 1-(isothiazol-4-yl)-N-((1R,5S,7s)-9-methyl-3-oxa-9-azabicyclo[3.3.1]nonan-7-yl)-1H-indole-3-carboxamide, 2,2,2-trifluoroacetic acid salt], with 9.21; and `CN1[C@@H]2COC[C@H]1C[C@@H](NC(=O)c1cn(-c3nccs3)c3ncccc13)C2` [Example 146, N-((1R,5S,7s)-9-methyl-3-oxa-9-azabicyclo[3.3.1]nonan-7-yl)-1-(thiazol-2-yl)-1H-pyrrolo[2,3-b]pyridine-3-carboxamide, 2,2,2-trifluoroacetic acid salt], with 9.15.

`CN1[C@@H]2COC[C@H]1C[C@@H](NC(=O)c1cn(-c3cscn3)c3ncccc13)C2` [Example 147, N-((1R,5S,7s)-9-methyl-3-oxa-9-azabicyclo[3.3.1]nonan-7-yl)-1-(thiazol-4-yl)-1H-pyrrolo[2,3-b]pyridine-3-carboxamide, 2,2,2-trifluoroacetic acid salt]: the negative-log IC50 (pIC50) was 9.40. Then `CN1C2COCC1CC(NC(=O)c1cn(-c3cncs3)c3ncccc13)C2` [Example 148, N-((1R,5S,7s)-9-methyl-3-oxa-9-azabicyclo[3.3.1]nonan-7-yl)-1-(thiazol-5-yl)-1H-pyrrolo[2,3-b]pyridine-3-carboxamide, 2,2,2-trifluoroacetic acid salt], with 9.40. As for `CN1C2COCC1CC(NC(=O)c1cn(-c3ccsn3)c3ccccc13)C2` [Example 153, 1-(isothiazol-3-yl)-N-((1R,5S,7s)-9-methyl-3-oxa-9-azabicyclo[3.3.1]nonan-7-yl)-1H-indole-3-carboxamide, 2,2,2-trifluoroacetic acid salt], the pIC50 was 9.06. The result for `CN1[C@@H]2COC[C@H]1C[C@@H](NC(=O)c1cn(-c3cncn3C)c3ccccc13)C2` [Example 154, 1-(1-methyl-1H-imidazol-5-yl)-N-((1R,5S,7s)-9-methyl-3-oxa-9-azabicyclo[3.3.1]nonan-7-yl)-1H-indole-3-carboxamide] reads 9.48; that for `CN1C2COCC1CC(NC(=O)c1cn(-c3ccns3)c3ccccc13)C2` [Example 158, 1-(isothiazol-5-yl)-N-((1R,5S,7s)-9-methyl-3-oxa-9-azabicyclo[3.3.1]nonan-7-yl)-1H-indole-3-carboxamide, 2,2,2-trifluoroacetic acid salt], 8.87.

Consider `CN1C2COCC1CC(NC(=O)c1cn(CC#N)c3ccccc13)C2` [Example 159, 1-(cyanomethyl)-N-((1R,5S,7s)-9-methyl-3-oxa-9-azabicyclo[3.3.1]nonan-7-yl)-1H-indole-3-carboxamide, 2,2,2-trifluoroacetic acid salt], for which the negative logarithm of the IC50 (pIC50) is 9.53.

With `CN1C2COCC1CC(OC(=O)c1cn(CCF)c3ccc(C#N)cc13)C2` [Example 160, (1R,5S,7s)-9-methyl-3-oxa-9-azabicyclo[3.3.1]nonan-7-yl 5-cyano-1-(2-fluoroethyl)-1H-indole-3-carboxylate, 2,2,2-trifluoroacetic acid salt], the pIC50 is 9.13.

For the compound `CN1[C@@H]2COC[C@H]1C[C@@H](OC(=O)c1cn(-c3ccc(F)nn3)c3ccc(C#N)cc13)C2` [Example 161, 1R,5S,7s)-9-methyl-3-oxa-9-azabicyclo[3.3.1]nonan-7-yl 5-cyano-1-(6-fluoropyridazin-3-yl)-1H-indole-3-carboxylate], the negative logarithm of the IC50 (pIC50) was less than 6.00. Then `CN1C2COCC1CC(NC(=O)c1cn(-c3nccs3)c3ncc(F)cc13)C2` [Example 162, 5-fluoro-N-((1R,5S,7s)-9-methyl-3-oxa-9-azabicyclo[3.3.1]nonan-7-yl)-1-(thiazol-2-yl)-1H-pyrrolo[2,3-b]pyridine-3-carboxamide, 2,2,2-trifluoroacetic acid salt], with 8.74; and `CN1C2COCC1CC(NC(=O)c1cn(-c3cscn3)c3ncc(F)cc13)C2` [Example 163, 5-fluoro-N-((1R,5S,7s)-9-methyl-3-oxa-9-azabicyclo[3.3.1]nonan-7-yl)-1-(thiazol-4-yl)-1H-pyrrolo[2,3-b]pyridine-3-carboxamide, 2,2,2-trifluoroacetic acid salt], with 8.74. The result for `CN1C2COCC1CC(NC(=O)c1cn(-c3cncs3)c3ncc(F)cc13)C2` [Example 164, 5-fluoro-N-((1R,5S,7s)-9-methyl-3-oxa-9-azabicyclo[3.3.1]nonan-7-yl)-1-(thiazol-5-yl)-1H-pyrrolo[2,3-b]pyridine-3-carboxamide, 2,2,2-trifluoroacetic acid salt] reads 8.93; that for `CN1C2COCC1CC(NC(=O)c1nn(-c3cncs3)c3ccccc13)C2` [Example 165, N-((1R,5S,7s)-9-methyl-3-oxa-9-azabicyclo[3.3.1]nonan-7-yl)-1-(thiazol-5-yl)-1H-indazole-3-carboxamide, 2,2,2-trifluoroacetic acid salt], 8.81; that for `Cn1ccc(-n2cc(C(=O)O[C@H]3C[C@H]4COC[C@@H](C3)N4)c3ccccc32)cc1=O` [Example 168, 1R,5S,7s)-3-oxa-9-azabicyclo[3.3.1]nonan-7-yl 1-(1-methyl-2-oxo-1,2-dihydropyridin-4-yl)-1H-indole-3-carboxylate, 2,2,2-trifluoroacetic acid salt], 8.93. As to `CN1C2COCC1CC(OC(=O)c1cn(-c3ccc(O)nn3)c3ccccc13)C2` [Example 169, (1R,5S,7s)-9-methyl-3-oxa-9-azabicyclo[3.3.1]nonan-7-yl 1-(6-hydroxypyridazin-3-yl)-1H-indole-3-carboxylate, 2,2,2-trifluoroacetic acid salt], the negative-log IC50 (pIC50) is 9.22.

`N#Cc1ccccc1-n1cc(C(=O)O[C@H]2C[C@H]3COC[C@@H](C2)N3)c2ccccc21` [Example 171, (1R,5S,7s)-3-oxa-9-azabicyclo[3.3.1]nonan-7-yl 1-(2-cyanophenyl)-1H-indole-3-carboxylate, 2,2,2-trifluoroacetic acid salt]: the negative logarithm of the IC50 (pIC50) is 8.96. The result for `N#Cc1cccc(-n2cc(C(=O)OC3CC4COCC(C3)N4)c3ccccc32)c1` [Example 172, (1R,5S,7s)-3-oxa-9-azabicyclo[3.3.1]nonan-7-yl 1-(3-cyanophenyl)-1H-indole-3-carboxylate, 2,2,2-trifluoroacetic acid salt] reads 8.54.

For `CN1C2COCC1CC(NC(=O)c1cn(-c3ccccc3)c3ccccc13)C2` [Example 174, N-((1R,5S,7s)-9-methyl-3-oxa-9-azabicyclo[3.3.1]nonan-7-yl)-1-phenyl-1H-indole-3-carboxamide, 2,2,2-trifluoroacetic acid salt], the pIC50 was 8.69.

As for `O=C(O[C@H]1C[C@H]2COC[C@@H](C1)N2)c1cn(-c2ncco2)c2ccccc12` [Example 177, (1R,5S,7s)-3-oxa-9-azabicyclo[3.3.1]nonan-7-yl 1-(oxazol-2-yl)-1H-indole-3-carboxylate, 2,2,2-trifluoroacetic acid salt], the pIC50 was 8.49. The result for `N#Cc1ccc(-n2cc(C(=O)O[C@H]3C[C@H]4COC[C@@H](C3)N4)c3ccccc32)cc1` [Example 180, (1R,5S,7s)-3-oxa-9-azabicyclo[3.3.1]nonan-7-yl 1-(4-cyanophenyl)-1H-indole-3-carboxylate, 2,2,2-trifluoroacetic acid salt] reads 8.23; that for `CN(C(=O)c1cn(-c2cnsc2)c2ccccc12)[C@H]1C[C@H]2COC[C@@H](C1)N2` [Example 185, N-((1R,5S,7S)-3-oxa-9-azabicyclo[3.3.1]nonan-7-yl)-1-(isothiazol-4-yl)-N-methyl-1H-indole-3-carboxamide], 8.51; that for `CN(C(=O)c1cn(-c2cnsc2)c2ccccc12)C1C[C@H]2COC[C@@H](C1)N2C` (stereo partly drawn) [Example 186, 1-(isothiazol-4-yl)-N-methyl-N-((1R,5S,7S)-9-methyl-3-oxa-9-azabicyclo[3.3.1]nonan-7-yl)-1H-indole-3-carboxamide], 8.82.

Turning to `CN1[C@@H]2COC[C@H]1CC(NC(=O)c1cn(-c3ccnnc3)c3ccccc13)C2` (stereo partly drawn) [Example 190, N-((1R,5S,7S)-9-methyl-3-oxa-9-azabicyclo[3.3.1]nonan-7-yl)-1-(pyridazin-4-yl)-1H-indole-3-carboxamide], the negative-log IC50 (pIC50) was 9.12. Then “(1R,3R,5S)-8-methyl-8-azabicyclo[3.2.1]octan-3-yl 1-(2,2-difluoroethyl)-1H-pyrrolo[2,3-b]pyridine-3-carboxylate 2,2,2-trifluoroacetate [Example 1]”, with 8.67; and “(1R,3R,5S)-8-methyl-8-azabicyclo[3.2.1]octan-3-yl 2-chloro-1-(2,2-difluoroethyl)-1H-indole-3-carboxylate 2,2,2-trifluoroacetate [Example 4]”, with 8.85; and “(1R,3R,5S)-8-methyl-8-azabicyclo[3.2.1]octan-3-yl 2-chloro-1-(methylsulfonyl)-1H-indole-3-carboxylate 2,2,2-trifluoroacetate [Example 6]”, with 8.63.
